Among the data in US12116343B2, “Inhibitors of APOL1 and methods of using same” (Vertex Pharmaceuticals Incorporated, priority 2020, dated 2024) are IC50 values, retold here.

Where two headings read alike, the source gives them in different places.

This test addresses T1, APOL1 G1 Protein (Homo sapiens, UniProt O14791, I384M/S342G).
T1 sequence (O14791 28-398 S342G/I384M): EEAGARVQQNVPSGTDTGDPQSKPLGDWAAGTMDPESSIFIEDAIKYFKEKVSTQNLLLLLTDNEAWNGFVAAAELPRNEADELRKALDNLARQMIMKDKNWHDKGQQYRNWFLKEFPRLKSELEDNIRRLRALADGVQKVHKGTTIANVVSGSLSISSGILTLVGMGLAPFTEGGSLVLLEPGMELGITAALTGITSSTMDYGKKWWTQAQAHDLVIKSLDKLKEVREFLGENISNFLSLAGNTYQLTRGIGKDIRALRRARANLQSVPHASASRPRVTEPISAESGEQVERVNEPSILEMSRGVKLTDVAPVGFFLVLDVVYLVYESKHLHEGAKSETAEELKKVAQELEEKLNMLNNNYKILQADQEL
In words: Trypanosoma brucei brucei lysis assay using APOL1 recombinant protein (AlamarBlue viability). It counts as cell-based. In short, it runs like this: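 Bloodstream-form T. b. brucei Lister 427 VSG 221, 120,000 parasites/well in phenol red-free, FBS-free medium, lysed by recombinant APOL1 G1 with compound (10-point dose response, 0.1% DMSO final). Viability read by AlamarBlue fluorescence against a parasite standard curve.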

[1] abbreviates: Table 24, Compounds 287 to 465, read-out: Trypanosoma Assay (IC50).

Regarding `O=C([C@H]1C[C@H](c2c(-c3ccc(F)cc3)[nH]c3c(F)cc(F)cc32)C1)N1CCC(O)(O)CC1` [Compound 127], the concentration for half-maximal inhibition (IC50) (usually the concentration needed to halve the response being measured) (Trypanosoma Assay (IC50), Trypanosoma brucei brucei lysis, recombinant APOL1, AlamarBlue) lay in the range of 250 to 1000 nM.

In the case of `NC(=O)CNCC1CC(c2c(-c3ccc(F)cc3)[nH]c3c(F)cc(F)cc23)C1` (stereo not shown) [Compound 433, 2-(((3-(5,7-difluoro-2-(4-fluorophenyl)-1H-indol-3-yl)cyclobutyl)methyl)amino)acetamide], the concentration for half-maximal inhibition (IC50) under setting [1] was less than 250 nM.

As to `NC(=O)CNC[C@H]1C[C@@H](c2c(-c3ccc(F)cc3)[nH]c3c(F)cc(F)cc32)C1` [Compound 447], under setting [1], the 50% inhibitory concentration (IC50) was less than 250 nM.

As for `NC(=O)CC1CC(c2c(-c3ccc(F)cc3)[nH]c3c(F)cc(F)cc23)C1` (stereo not shown) [Compound 455], under setting [1], the IC50 was less than 250 nM.
